Laboratory results published in PMC9995496, “A screen for MeCP2-TBL1 interaction inhibitors using a luminescence-based assay” (Scientific Reports, 2023).

Target: T1, MeCP2-TBL1 interaction (MeCP2-SmBiT / TBL1-LgBiT) (Mus musculus, UniProt Q9QXE7)
T1 construct: expressed in transfected cells; crude lysate used as a cell-free assay
T1 sequence (Q9QXE7 166-527): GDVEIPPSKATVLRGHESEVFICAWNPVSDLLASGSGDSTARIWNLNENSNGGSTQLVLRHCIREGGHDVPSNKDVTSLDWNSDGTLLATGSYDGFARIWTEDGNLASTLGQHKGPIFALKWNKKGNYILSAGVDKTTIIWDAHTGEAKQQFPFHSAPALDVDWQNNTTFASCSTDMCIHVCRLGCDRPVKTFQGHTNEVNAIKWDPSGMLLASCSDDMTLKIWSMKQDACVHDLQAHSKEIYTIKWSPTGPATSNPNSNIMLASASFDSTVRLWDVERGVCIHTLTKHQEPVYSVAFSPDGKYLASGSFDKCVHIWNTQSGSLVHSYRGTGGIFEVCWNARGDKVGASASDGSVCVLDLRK
Assay: MeCP2-TBL1 NanoLuc luciferase complementation assay (cell-free, extracts of transfected HEK293 cells);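 note: each compound tested at 20 µM final concentration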
Type: binding, human
Procedure, shortened: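 Cell-free split NanoLuc: lysate of HEK293 cells co-expressing the MeCP2 C-terminal half-SmBiT and TBL1 WD domain-LgBiT, mixed 1:1 with furimazine. After 30 min at room temperature, luminescence was plate-median normalized.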

[1] = primary screen of Asinex library, single well per compound
[2] = primary screen of the Asinex library, sheet "Sargen output Asinex library", one well per compound
[3] = primary screen of the Asinex library, sheet "Sargen output Asinex library", one well per compound, Batch Ref. 1

Molecule `COc1cccc([C@@H]2C[C@]3(C)NC(=O)CCCC[C@@H]3N2CC(=O)Nc2cc(C)ccc2F)c1` [BDH_33619764] has an Inhibition percent [1] of -0.65.

In the case of `CC(=O)N[C@@]12CCN(CC(=O)Nc3cc(C)ccc3F)C[C@@H]1[C@@H](c1ccccc1)N(C(C)=O)C2` [BDH_33619766], the Inhibition percent [1] was -3.87.

With `CC(=O)N[C@@]12CN(CC(=O)Nc3cc(C)ccc3F)CC[C@@H]1[C@@H](c1ccccc1)N(C(C)=O)C2` [BDH_33619769] the Inhibition percent [2] was -1.76%.

With `CC(=O)N[C@H]1C[C@@H](C(=O)N(C)C)N(CC(=O)Nc2cccc3c2CCCC3)[C@H]1c1ccccc1` [BDH_33619991] the Inhibition percent [3] was -0.19%.

For `COc1cccc([C@@H]2C[C@]3(C)NC(=O)CCCC[C@@H]3N2CC(=O)Nc2ccn(C)n2)c1` [BDH_33620384], the Inhibition percent [1] was -2.63.

Molecule `O=C(CN1CCNCC1c1ccc(C(F)(F)F)cc1)NC(c1ccccc1)c1ccccc1` (stereo not drawn) [BDH_33620941] has an Inhibition percent [1] of -0.43.

`COc1cccc([C@@H]2C[C@]3(C)NC(=O)CCCC[C@@H]3N2CC(=O)Nc2cc(F)ccc2C)c1` [BDH_33620981] gave an Inhibition percent [1] of -1.41.

With `CC(=O)N[C@@]12CN(C(C)=O)CC[C@@H]1[C@@H](c1ccccc1)N(CC(=O)Nc1cc(F)ccc1C)C2` [BDH_33621128] the Inhibition percent [2] was 1.60%.

For `COc1cccc([C@@H]2C[C@]3(C)NC(=O)CCCC[C@@H]3N2CC(=O)Nc2cccc(C)c2C)c1` [BDH_33621286], the Inhibition percent [3] was 2.19%.

`CC(=O)N[C@@]12CN(C)CC[C@@H]1[C@@H](c1ccccc1)N(CC(=O)Nc1cccc(C)c1C)C2` [BDH_33621433] was tested, and the Inhibition percent [2] was -4.50%.

For `CC(=O)N[C@@]12CN(C(C)=O)CC[C@@H]1[C@@H](c1ccccc1)N(CC(=O)Nc1cccc(C)c1C)C2` [BDH_33621434], the Inhibition percent [2] was 5.23%.

`COc1ccc(NC(C)=O)c(NC(=O)CN2C[C@H]3CCC[C@H](Cc4cnccn4)[C@H]3C2)c1` [BDH_33621771] gave an Inhibition percent [1] of 0.12.

Molecule `CC(=O)N[C@@]12CN(C(C)=O)CC[C@@H]1[C@@H](c1ccccc1)N(CC(=O)Nc1cccc(F)c1C)C2` [BDH_33622250] has an Inhibition percent [3] of -0.19%.

`COc1cccc([C@@H]2C[C@]3(C)NC(=O)CCCC[C@@H]3N2CC(=O)NCc2nc3ccccc3n2C)c1` [BDH_33622879] showed an Inhibition percent [3] of 0.95%.

`Cn1c(CNC(=O)CN2[C@H](Cc3ccccc3)C[C@]3(C)NC(=O)CCC[C@H]23)nc2ccccc21` [BDH_33623014] was tested, and the Inhibition percent [2] was -0.21%.

`COc1ccc([C@@H]2C[C@]3(C)NC(=O)CCC[C@@H]3N2CC(=O)NCc2nc3ccccc3n2C)cc1` [BDH_33623015] gave an Inhibition percent [2] of 0.43%.

`CCc1ccccc1NC(=O)CN1CC[C@@]2(NC(C)=O)CN(C(C)=O)[C@H](c3ccccc3)[C@H]2C1` [BDH_33623049] was tested, and the Inhibition percent [2] was -1.00%.

`CC(=O)N[C@H]1C[C@@H](C(=O)N(C)C)N(CC(=O)NCc2ccc3[nH]c(C)c(C)c3c2)[C@H]1c1ccccc1` [BDH_33623462] was tested, and the Inhibition percent [2] was -0.84%.

Molecule `COc1ccc([C@@H]2C[C@]3(C)NC(=O)CCC[C@@H]3N2CC(=O)NCc2ccc3[nH]c(C)c(C)c3c2)cc1` [BDH_33623525] has an Inhibition percent [3] of -0.10%.

`CCn1cc(NC(=O)CN2[C@H]3CCCCC(=O)N[C@@]3(C)C[C@H]2c2cccc(C(F)(F)F)c2)c(C)n1` [BDH_33623667] was tested, and the Inhibition percent [1] was -2.55.

Molecule `CCn1cc(NC(=O)CN2[C@H](Cc3ccccc3)C[C@]3(C)NC(=O)CCC[C@H]23)c(C)n1` [BDH_33623813] has an Inhibition percent [2] of -1.65%.

Work on `CC(=O)Nc1ccc(NC(=O)CN2[C@H](Cc3ccccc3)C[C@]3(C)NC(=O)CCC[C@H]23)c(Cl)c1` [BDH_33623952] yielded an Inhibition percent [2] of 1.80%.

Molecule `COc1cccc([C@@H]2C[C@]3(C)NC(=O)CCCC[C@@H]3N2CC(=O)Nc2ccc(OC(F)F)cc2)c1` [BDH_33624322] has an Inhibition percent [2] of 7.98%.

Work on `CC(=O)N[C@@]12CN(C)CC[C@@H]1[C@@H](c1ccccc1)N(CC(=O)Nc1ccc(OC(F)F)cc1)C2` [BDH_33624452] yielded an Inhibition percent [1] of 0.21.

For `COc1ccc([C@@H]2C[C@]3(C)NC(=O)CCC[C@@H]3N2CC(=O)Nc2ccc(OC(F)F)cc2)cc1` [BDH_33624459], the Inhibition percent [3] was -1.08%.

Work on `Cc1cc(NC(=O)CN2[C@H]3CCCCCN[C@@]3(C)C[C@H]2c2ccccc2)nn1C` [BDH_33624483] yielded an Inhibition percent [1] of -0.55.

`COc1cccc([C@@H]2C[C@]3(C)NC(=O)CCCC[C@@H]3N2CC(=O)Nc2cc(C)n(C)n2)c1` [BDH_33624491] showed an Inhibition percent [3] of -2.56%.

Molecule `CCc1ccc(NC(=O)CN2[C@H]3CCCCC(=O)N[C@@]3(C)C[C@H]2c2cccc(OC)c2)cc1` [BDH_33625442] has an Inhibition percent [2] of 10.53%.

Molecule `CC(=O)N[C@@]12CCN(CC(=O)Nc3ccc(C)c(F)c3)C[C@@H]1[C@@H](c1ccccc1)N(C(C)=O)C2` [BDH_33625631] has an Inhibition percent [2] of 2.58%.

`Cc1ccc(NC(=O)CN2[C@H](Cc3ccccc3)C[C@]3(C)NC(=O)CCC[C@H]23)cc1F` [BDH_33625782] was tested, and the Inhibition percent [3] was 10.91%.

Work on `COc1ccc([C@@H]2C[C@]3(C)NC(=O)CCC[C@@H]3N2CC(=O)Nc2ccc(C)c(F)c2)cc1` [BDH_33625783] yielded an Inhibition percent [3] of 2.77%.

With `COc1ccc(C)cc1NC(=O)CN1CC[C@@]2(NC(C)=O)CN(C(C)=O)[C@H](c3ccccc3)[C@H]2C1` [BDH_33625816] the Inhibition percent [3] was 0.56%.

Work on `CC(=O)N[C@@]12CCN(CC(=O)Nc3cccc(F)c3)C[C@@H]1[C@@H](c1ccccc1)N(C(C)=O)C2` [BDH_33625995] yielded an Inhibition percent [3] of -1.85%.

With `COc1ccc([C@@H]2C[C@]3(C)NC(=O)CCC[C@@H]3N2CC(=O)Nc2cccc(F)c2)cc1` [BDH_33626152] the Inhibition percent [3] was -3.72%.

Molecule `CC(=O)N[C@H]1C[C@@H](C(=O)N(C)C)N(CC(=O)NCc2ccccc2Cl)[C@H]1c1ccccc1` [BDH_33626360] has an Inhibition percent [3] of 0.20%.

In the case of `C[C@]12C[C@@H](Cc3ccccc3)N(CC(=O)NCc3ccccc3Cl)[C@H]1CCCC(=O)N2` [BDH_33626431], the Inhibition percent [1] was 6.92.

Work on `COc1ccc(NC(=O)CN2[C@H]3CCCCC(=O)N[C@@]3(C)C[C@H]2c2cccc(OC)c2)cc1` [BDH_33626569] yielded an Inhibition percent [3] of -0.22%.

`COc1ccc(NC(=O)CN2CC[C@@]3(NC(C)=O)CN(C(C)=O)[C@H](c4ccccc4)[C@H]3C2)cc1` [BDH_33626570] was tested, and the Inhibition percent [3] was -3.55%.

In the case of `Nc1ncc(-c2cccc(C(F)(F)F)c2)c(C2CCCCN2C(=O)CCNC(=O)c2cccnc2)n1` (stereo not drawn) [BDH_33627369], the Inhibition percent [3] was 1.39%.

With `C[C@]12C[C@@H](Cc3ccccc3)N(C(=O)CC3CCN(c4ncccn4)CC3)[C@H]1CCCC(=O)N2` [BDH_33627845] the Inhibition percent [1] was -0.41.

For `C[C@]12C[C@@H](Cc3ccccc3)N(C(=O)CCN3C(=O)CCCC3=O)[C@H]1CCCC(=O)N2` [BDH_33628122], the Inhibition percent [3] was 1.89%.

With `Cc1cc(O)cc(=O)n1CC(=O)N1CCCCC1C1CCN(C(=O)Cc2ccccc2F)CC1` (stereo not drawn) [BDH_33628360] the Inhibition percent [1] was -0.67.

In the case of `Nc1ncc(-c2cccc(C(F)(F)F)c2)c(C2CCCCN2C(=O)CCN2C(=O)CCNC2=O)n1` (stereo not drawn) [BDH_33628597], the Inhibition percent [3] was 2.35%.

In the case of `O=C(NCCC1CCCCN1C(=O)CCN1C(=O)CCNC1=O)c1ccccc1` (stereo not drawn) [BDH_33628607], the Inhibition percent [1] was 0.45.

In the case of `Cn1c(=O)c2c(ncn2CCC(=O)N2[C@H](Cc3ccccc3)C[C@]3(C)NC(=O)CCC[C@H]23)n(C)c1=O` [BDH_33628646], the Inhibition percent [3] was 0.10%.

For `Cc1ccc(NC(=O)c2cccc(C3CCCN3C(=O)CCCN3Cc4ccccc4C3)n2)nc1` (stereo not drawn) [BDH_33628747], the Inhibition percent [2] was -0.70%.

Work on `Cn1c(=O)n(C)c2cc(CCC(=O)N3CCCCC3CCNC(=O)c3ccccc3)ccc21` (stereo not drawn) [BDH_33628839] yielded an Inhibition percent [3] of -0.76%.

`C[C@]12C[C@@H](Cc3ccccc3)N(C(=O)c3ccc(OCCN4CCCCC4)cc3)[C@H]1CCCC(=O)N2` [BDH_33629014] showed an Inhibition percent [1] of -1.82.

With `Cc1cc(O)cc(=O)n1CCC(=O)N1CCCCC1C1CCN(C(=O)Cc2ccccc2F)CC1` (stereo not drawn) [BDH_33629102] the Inhibition percent [3] was -1.24%.

Molecule `CNC(=O)c1sc2nc(C3CCCCN3C(=O)CCCNc3ncccn3)ccc2c1N` (stereo not drawn) [BDH_33629130] has an Inhibition percent [3] of -2.07%.

With `CNc1nc(C2CCCCN2C(=O)CCNc2nc(C)cc(C)n2)nc2c1CCN(C(C)=O)C2` (stereo not drawn) [BDH_33629184] the Inhibition percent [2] was -0.36%.

Molecule `CN1C(=O)N(CC(=O)N2CCCCC2CCNC(=O)c2ccccc2)C(=O)C12CCCCC2` (stereo not drawn) [BDH_33629465] has an Inhibition percent [1] of 1.86.

For `O=C(NCCC1CCCCN1C(=O)CCN1C(=O)COc2ccc(Cl)cc21)c1ccccc1` (stereo not drawn) [BDH_33629495], the Inhibition percent [3] was -0.39%.

`C[C@]12C[C@@H](Cc3ccccc3)N(C(=O)c3ccc(OCCN4CCCC4)cc3)[C@H]1CCCC(=O)N2` [BDH_33629575] showed an Inhibition percent [3] of -1.81%.

In the case of `C[C@]12C[C@@H](Cc3ccccc3)N(C(=O)C3CCN(Cc4cccnc4)CC3)[C@H]1CCCC(=O)N2` [BDH_33630330], the Inhibition percent [3] was -0.000826%.

Molecule `CC(=O)N1CCCCC[C@@H]2[C@@H]1C[C@@H](Cc1ccccc1)N2C(=O)c1cccc(Cn2cncn2)c1` [BDH_33630828] has an Inhibition percent [3] of -0.42%.

Work on `C[C@]12C[C@@H](Cc3ccccc3)N(C(=O)c3ccc(NCc4cccnc4)cc3)[C@H]1CCCC(=O)N2` [BDH_33630910] yielded an Inhibition percent [3] of 7.42%.

For `Cc1cc2ncn(CCC(=O)N3[C@H](Cc4ccccc4)C[C@]4(C)NC(=O)CCC[C@H]34)c2cc1C` [BDH_33631266], the Inhibition percent [3] was -1.89%.

`C[C@]12C[C@@H](c3cccc(C(F)(F)F)c3)N(C(=O)CCc3nc4ccccc4[nH]3)[C@H]1CCCCC(=O)N2` [BDH_33631539] was tested, and the Inhibition percent [1] was -2.28.

`O=C(NCCC1CCCCN1C(=O)CCn1cnc2ccccc21)c1ccccc1` (stereo not drawn) [BDH_33631954] was tested, and the Inhibition percent [3] was -1.65%.
